Data published in patent US20230111310A1, “CARBOXYLIC ACID DERIVATIVE-SUBSTITUTED IMINO ARYL COMPOUND, PREPARATION METHOD THEREFOR, HERBICIDAL COMPOSITION AND USE THEREOF” (Qingdao Kingagroot Chemical Compound Co., Ltd., priority 2020, published 2023).

Assays:
Assay in all cases: Weeding effect in post-emergence stage
Type in all cases: in vivo
Settings in all cases: fresh weight control rate level
[1] = test system: Setaria viridis
How it was run: (§1)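 Weeds were treated post-emergence at 2-3 leaves with compound doses from 7.5 up to 500 g/ha, formulated in acetone–Tween 80 with methyl oleate synergist. Efficacy was assessed as growth control after 3 weeks.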

[2] = test system: Abutilon theophrasti
How it was run: as §1

[3] = test system: Eleusine indica
How it was run: as §1

[4] = test system: Alopecurus japonicus
How it was run: as §1

[5] = test system: Digitaria sanguinalis
How it was run: as §1

[6] = test system: Echinochloa crusgalli
How it was run: as §1

Structure (SMILES)	Weeding effect in post-emergence stage, Setaria viridis (level) ([1]; Dose 15 g/ha)	Weeding effect in post-emergence stage, Abutilon theophrasti (level) ([2]; Dose 15 g/ha)	Weeding effect in post-emergence stage, Eleusine indica (level) ([3]; Dose 15 g/ha)	Weeding effect in post-emergence stage, Alopecurus japonicus (level) ([4]; Dose 15 g/ha)	Weeding effect in post-emergence stage, Digitaria sanguinalis (level) ([5]; Dose 15 g/ha)	Weeding effect in post-emergence stage, Echinochloa crusgalli (level) ([6]; Dose 15 g/ha)	other results
CC(=NC(=O)C(C)ON=Cc1cc(-n2c(=O)cc(C(F)(F)F)n(C)c2=O)c(F)cc1Cl)c1ccccc1 (stereo not drawn) [Compound 453]	–	–	–	–	–	–	Weeding effect in post-emergence stage, Setaria viridis (level) ([1]; Dose 30 g/ha): 5 (Level 5: growth control rate is above 85%); Weeding effect in post-emergence stage, Abutilon theophrasti (level) ([2]; Dose 30 g/ha): 5 (Level 5: growth control rate is above 85%); Weeding effect in post-emergence stage, Eleusine indica (level) ([3]; Dose 30 g/ha): 5 (Level 5: growth control rate is above 85%); Weeding effect in post-emergence stage, Alopecurus japonicus (level) ([4]; Dose 30 g/ha): 5 (Level 5: growth control rate is above 85%); Weeding effect in post-emergence stage, Digitaria sanguinalis (level) ([5]; Dose 30 g/ha): 5 (Level 5: growth control rate is above 85%); Weeding effect in post-emergence stage, Echinochloa crusgalli (level) ([6]; Dose 30 g/ha): 5 (Level 5: growth control rate is above 85%)
CC(O/N=C/c1cc(-n2c(=O)cc(C(F)(F)F)n(C)c2=O)c(F)cc1Cl)C(=O)N1CCOCC1 (stereo not drawn) [Compound 454]	–	–	–	–	–	–	Weeding effect in post-emergence stage, Setaria viridis (level) ([1]; Dose 60 g/ha): 5 (Level 5: growth control rate is above 85%); Weeding effect in post-emergence stage, Abutilon theophrasti (level) ([2]; Dose 60 g/ha): 5 (Level 5: growth control rate is above 85%); Weeding effect in post-emergence stage, Eleusine indica (level) ([3]; Dose 60 g/ha): 5 (Level 5: growth control rate is above 85%); Weeding effect in post-emergence stage, Alopecurus japonicus (level) ([4]; Dose 60 g/ha): 5 (Level 5: growth control rate is above 85%); Weeding effect in post-emergence stage, Digitaria sanguinalis (level) ([5]; Dose 60 g/ha): 5 (Level 5: growth control rate is above 85%); Weeding effect in post-emergence stage, Echinochloa crusgalli (level) ([6]; Dose 60 g/ha): 5 (Level 5: growth control rate is above 85%)
COC(=O)CCCO/N=C/c1cc(-n2c(=O)cc(C(F)(F)F)n(C)c2=O)c(F)cc1Cl [Compound 485]	5 (Level 5: growth control rate is above 85%)	5 (Level 5: growth control rate is above 85%)	5 (Level 5: growth control rate is above 85%)	5 (Level 5: growth control rate is above 85%)	5 (Level 5: growth control rate is above 85%)	5 (Level 5: growth control rate is above 85%)	–
CCOC(=O)C(CC(F)(F)F)O/N=C/c1cc(-n2c(=O)cc(C(F)(F)F)n(C)c2=O)c(F)cc1Cl (stereo not drawn) [Compound 486]	5 (Level 5: growth control rate is above 85%)	5 (Level 5: growth control rate is above 85%)	5 (Level 5: growth control rate is above 85%)	5 (Level 5: growth control rate is above 85%)	5 (Level 5: growth control rate is above 85%)	5 (Level 5: growth control rate is above 85%)	–
C=CCC(O/N=C/c1cc(-n2c(=O)cc(C(F)(F)F)n(C)c2=O)c(F)cc1Cl)C(=O)OC (stereo not drawn) [Compound 487]	5 (Level 5: growth control rate is above 85%)	5 (Level 5: growth control rate is above 85%)	5 (Level 5: growth control rate is above 85%)	5 (Level 5: growth control rate is above 85%)	5 (Level 5: growth control rate is above 85%)	5 (Level 5: growth control rate is above 85%)	–
COC(=O)C(O/N=C/c1cc(-n2c(=O)cc(C(F)(F)F)n(C)c2=O)c(F)cc1Cl)C1CCC1 (stereo not drawn) [Compound 488]	5 (Level 5: growth control rate is above 85%)	5 (Level 5: growth control rate is above 85%)	5 (Level 5: growth control rate is above 85%)	5 (Level 5: growth control rate is above 85%)	5 (Level 5: growth control rate is above 85%)	5 (Level 5: growth control rate is above 85%)	–
COC(=O)C(O/N=C/c1cc(-n2c(=O)cc(C(F)(F)F)n(C)c2=O)c(F)cc1Cl)C1CCCC1 (stereo not drawn) [Compound 489]	5 (Level 5: growth control rate is above 85%)	5 (Level 5: growth control rate is above 85%)	5 (Level 5: growth control rate is above 85%)	5 (Level 5: growth control rate is above 85%)	5 (Level 5: growth control rate is above 85%)	5 (Level 5: growth control rate is above 85%)	–
COC(=O)C(O/N=C/c1cc(-n2c(=O)cc(C(F)(F)F)n(C)c2=O)c(F)cc1Cl)C1CCCCC1 (stereo not drawn) [Compound 490]	5 (Level 5: growth control rate is above 85%)	5 (Level 5: growth control rate is above 85%)	5 (Level 5: growth control rate is above 85%)	5 (Level 5: growth control rate is above 85%)	5 (Level 5: growth control rate is above 85%)	5 (Level 5: growth control rate is above 85%)	–
CCSC(=O)C(C)O/N=C/c1cc(-n2c(=O)n(C)c(=O)n(C)c2=O)c(F)cc1Cl (stereo not drawn) [Compound 491]	5 (Level 5: growth control rate is above 85%)	5 (Level 5: growth control rate is above 85%)	5 (Level 5: growth control rate is above 85%)	5 (Level 5: growth control rate is above 85%)	5 (Level 5: growth control rate is above 85%)	5 (Level 5: growth control rate is above 85%)	–
COC(=O)C(OC)O/N=C/c1cc(-n2c(=O)cc(C(F)(F)F)n(C(OC)C(=O)OC)c2=O)c(F)cc1Cl (stereo not drawn) [Compound 493]	5 (Level 5: growth control rate is above 85%)	5 (Level 5: growth control rate is above 85%)	5 (Level 5: growth control rate is above 85%)	5 (Level 5: growth control rate is above 85%)	5 (Level 5: growth control rate is above 85%)	5 (Level 5: growth control rate is above 85%)	–
COC(=O)C(OC)(OC)O/N=C/c1cc(-n2c(=O)cc(C(F)(F)F)n(C)c2=O)c(F)cc1Cl [Compound 494]	5 (Level 5: growth control rate is above 85%)	5 (Level 5: growth control rate is above 85%)	5 (Level 5: growth control rate is above 85%)	5 (Level 5: growth control rate is above 85%)	5 (Level 5: growth control rate is above 85%)	5 (Level 5: growth control rate is above 85%)	–
CC(O/N=C/c1cc(-n2c(=O)cc(C(F)(F)F)n(C)c2=O)c(F)cc1Cl)C(=O)OCc1ccc(Cl)nc1 (stereo not drawn) [Compound 495]	5 (Level 5: growth control rate is above 85%)	5 (Level 5: growth control rate is above 85%)	5 (Level 5: growth control rate is above 85%)	5 (Level 5: growth control rate is above 85%)	5 (Level 5: growth control rate is above 85%)	5 (Level 5: growth control rate is above 85%)	–
COC(=O)C(CCO)O/N=C/c1cc(-n2c(=O)cc(C(F)(F)F)n(C)c2=O)c(F)cc1Cl (stereo not drawn) [Compound 496]	5 (Level 5: growth control rate is above 85%)	5 (Level 5: growth control rate is above 85%)	5 (Level 5: growth control rate is above 85%)	5 (Level 5: growth control rate is above 85%)	5 (Level 5: growth control rate is above 85%)	5 (Level 5: growth control rate is above 85%)	–
